± gives the expanded uncertainty stated by the source.
Columns and labels:
[1] = 298.15 K; 101.33 kPa; Liquid; Vibrating tube method
[2] = refractive index (Na D-line) (dimensionless); details: 298.15 K; 101.33 kPa; Liquid; Standard Abbe refractometry
[3] = wn = mass fraction of the nth substance listed; details: 298.15 K, 101 kPa, Liquid, Vibrating tube method

Structure (SMILES) | mass density [1] [kg/m3] | refractive index [2] | mass density ([3]; w1 = 0.0115) [kg/m3] | mass density ([3]; w1 = 0.05) [kg/m3] | mass density ([3]; w1 = 0.101) [kg/m3] | mass density ([3]; w1 = 0.2011) [kg/m3] | mass density ([3]; w1 = 0.3051) [kg/m3] | mass density ([3]; w1 = 0.3993) [kg/m3]
CCCC(=O)[O-].[NH3+]CCO [2-hydroxy ethylammonium butanoate] | 1075.12 ± 6.3 | 1.4659 ± 0.0009 |  |  |  |  |  | 
CCCC(=O)[O-].[NH3+]CCO [2-hydroxy ethylammonium butanoate] + O |  |  | 999.43 ± 2.2 | 1006.63 ± 8.8 | 1016.39 ± 11 | 1033.12 ± 8.9 | 1046.73 ± 7.6 | 1058.12 ± 7.3

Source: the NIST ThermoML archive (doi:10.1021/acs.jced.7b00278)
